In US11161856B2 (H. Lundbeck A/S, priority 2017, dated 2021):
pIC50: −log10 of the molar value.

Legend:
MAGL [1] = molecular target: T1, MAGL (Mus musculus, UniProt O35678); test: Mouse brain proteomes from inhibitor treated mice (oral gavage, brain proteome ABPP 4 h after administration); assay type: in vivo; conditions: mouse brain proteome 4 h after administration
T1 construct: from tissue; host or cells: brain of wild-type C57Bl/6J mice dosed by oral gavage
T1 sequence (O35678 1-303): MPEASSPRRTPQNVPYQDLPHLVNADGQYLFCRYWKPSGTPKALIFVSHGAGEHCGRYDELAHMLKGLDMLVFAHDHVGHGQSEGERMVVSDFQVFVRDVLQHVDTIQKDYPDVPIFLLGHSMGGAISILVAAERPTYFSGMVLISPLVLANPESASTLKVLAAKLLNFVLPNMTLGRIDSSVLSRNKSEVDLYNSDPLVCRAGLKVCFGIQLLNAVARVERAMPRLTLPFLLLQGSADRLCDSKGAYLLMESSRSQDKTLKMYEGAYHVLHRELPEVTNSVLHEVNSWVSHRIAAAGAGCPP
Procedure: Preparation of Mouse Brain Proteomes from Inhibitor Treated Mice.
Inhibitors were administered to wild-type C57B1/6J by oral gavage in a vehicle of polyethylene glycol. Each animal was sacrificed 4 h following administration and brain proteomes were prepared and analyzed according to previously established methods (See Niphakis, M. J., et al. (2011) ACS Chem. Neurosci. and Long, J. Z., et al. Nat. Chem. Biol. 5:37-44).

MGLL = molecular target: T2, MGLL (Mus musculus, UniProt O35678); test: In vitro competitive activity-based protein profiling, mouse brain proteome (MGLL); assay type: biochemical; conditions: for % Inh MGLL Brain (Mouse, μM): concentration not given (μM)
T2 construct: Brain; from tissue; host or cells: mouse brain proteome
T2 sequence (O35678 1-303): T1 sequence (O35678 1-303)

ABHD6 = molecular target: T3, ABHD6 (Mus musculus, UniProt Q8R2Y0); test: In vitro competitive activity-based protein profiling, mouse brain proteome (ABHD6); assay type: biochemical; conditions: for % Inh ABHD6 Brain (Mouse, μM): mouse brain proteome, concentration not given (μM)
T3 construct: Brain; from tissue; host or cells: mouse brain proteome
T3 sequence (Q8R2Y0 1-336): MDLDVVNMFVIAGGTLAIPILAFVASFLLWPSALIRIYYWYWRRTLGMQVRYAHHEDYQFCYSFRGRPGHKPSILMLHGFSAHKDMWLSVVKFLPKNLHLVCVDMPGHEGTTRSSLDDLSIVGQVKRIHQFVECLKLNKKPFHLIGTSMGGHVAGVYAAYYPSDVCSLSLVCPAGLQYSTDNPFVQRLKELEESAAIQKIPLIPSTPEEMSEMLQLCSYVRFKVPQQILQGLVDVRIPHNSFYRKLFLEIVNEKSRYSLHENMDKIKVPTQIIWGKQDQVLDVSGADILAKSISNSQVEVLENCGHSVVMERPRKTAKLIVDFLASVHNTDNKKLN
Procedure: [The source words this procedure for another target and reports this target under the same test.] In Vitro Competitive Activity-Based Protein Profiling.
Proteomes (human prefrontal cortex or cell membrane fractions) (50 μL, 1.0 mg/mL total protein concentration) were preincubated with varying concentrations of inhibitors at 37° C. After 30 min, FP-Rh or HT-01 (1.0 μL, 50 μM in DMSO) was added and the mixture was incubated for another 30 min at room temperature. Reactions were quenched with SDS loading buffer (15 μL-4×) and run on SDS-PAGE.

MAGL [2] = molecular target: T4, MAGL (Homo sapiens, UniProt Q99685); test: In vitro competitive activity-based protein profiling (FP-Rh or HT-01 probe, gel-based); assay type: biochemical; conditions: prefrontal cortex (PFC) proteome, concentration not given (μM)
T4 construct: Proteomes (human prefrontal cortex or cell membrane fractions); from tissue
T4 sequence (Q99685 1-303): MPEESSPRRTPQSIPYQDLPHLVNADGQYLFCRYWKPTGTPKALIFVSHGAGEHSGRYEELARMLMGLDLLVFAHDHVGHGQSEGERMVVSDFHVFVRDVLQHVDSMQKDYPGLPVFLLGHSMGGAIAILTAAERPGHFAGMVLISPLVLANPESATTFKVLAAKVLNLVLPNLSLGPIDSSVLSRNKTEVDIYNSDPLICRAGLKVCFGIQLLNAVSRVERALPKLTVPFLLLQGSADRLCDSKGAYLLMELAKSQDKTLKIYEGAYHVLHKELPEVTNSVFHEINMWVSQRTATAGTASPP
Outline: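 Human prefrontal cortex or cell membrane proteomes (1.0 mg/mL total protein) were preincubated with varying inhibitor concentrations for 30 min at 37° C. FP-Rh or HT-01 probe (50 μM DMSO stock) was then added for 30 min at room temperature, and samples were quenched in SDS loading buffer and resolved by SDS-PAGE.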

| % Inh 5 mg/kg MGLL (Mouse) (MAGL [1]) | pIC50 (MGLL) | % Inh MGLL Brain (Mouse, μM) (MGLL) | % Inh ABHD6 Brain (Mouse, μM) (ABHD6) | pIC50 (ABHD6; mouse proteome) | % Inh MGLL PFC (Human, μM) (MAGL [2]) | Structure (SMILES) |
| --- | --- | --- | --- | --- | --- | --- |
| ### (### is ≥75%) | > 7.00 | ### (### is ≥75%) | ## (## is between 25 and 75%) | < 6.00 | – | CS(=O)(=O)N1CCC2(CC1)CN(c1cc(C(F)(F)F)ccc1CN1CCN(C(=O)OC(C(F)(F)F)C(F)(F)F)CC1)C2 [Example 207, 1,1,1,3,3,3-Hexafluoropropan-2-yl 4-(2-(7-(methylsulfonyl)-2,7-diazaspiro[3,5]nonan-2-yl)-4-(trifluoromethyl)benzyl) piperazine-1-carboxylate] |
| – | – | ### (### is ≥75%) | ### (### is ≥75%) | – | ### (### is ≥75%) | O=C(O)[C@H]1CCCN(c2cc(CN3CC4(CCN(C(=O)OC(C(F)(F)F)C(F)(F)F)CC4)C3)cc(C(F)(F)F)c2)C1 [Example 106, (S)-1-(3-((7-(((1,1,1,3,3,3-Hexafluoropropan-2-yl)oxy)carbonyl)-2,7-diazaspiro[3,5]nonan-2-yl)methyl)-5-(trifluoromelhyl)phenyl) piperidine-3-carboxylic acid] |
| – | – | ### (### is ≥75%) | ### (### is ≥75%) | – | ### (### is ≥75%) | O=C(OC(C(F)(F)F)C(F)(F)F)N1CCC2(CC1)CCN(C(=O)c1ccc(C(F)(F)F)cc1Cl)C2 [Example 119, 1,1,1,3,3,3-Hexafluoropropan-2-yl 2-(2-chloro-4-(trifluoromethyl)benzoyl)-2,8-diazaspiro[4.5]decane-8-carboxylate] |
